The test system of data set [1] is rat adrenal medulla-derived cell line PC12. The data set can be described thus: Differentiation of PC12 cells, morphological change (micrographs). It is filed as cell-based. The settings on record: medium containing NGF (positive control); sixth day of culture. As for the experimental part: In the present example, using rat adrenal medulla-derived cell line PC12, which is neurocyte model cells, obtained from the RIKEN BioResource Center, the effect of 2-Cl—C.OXT-A of Example 1 on the differentiation of PC12 cells was examined.
(§1) Three samples were prepared by adding additives shown in Table 5 below to PBS so as to achieve predetermined concentrations. Also, an evaluation medium was prepared by adding each sample or PBS to DMEM (no serum) so that its concentration became 10 v/v %. Furthermore, as a control medium, a medium containing only DMEM (no serum) was prepared. […] On the sixth day of the culture, the cells were photographed under a microscope, and the AChE activity was measured according to the Ellman's method (Ellman, G. L., et al., Biochem. Pharmacol., 7, pp. 88-95, (1961)). Specifically, the AChE activity was measured in the following manner. […] The sample solution, 75 μl of 10 mmol/l DTNB, and 3.0 ml of 0.1 mol/l phosphate buffer solution (pH 8.0) were added to a […] for absorbance measurement, and finally, 50 μl of 100 mmol/l acetylthiocholine was added to cause a reaction. The absorbance of the reaction solution at 412 nm was measured for 5 minutes from immediately after the addition of the ace tylthiocholine. From the thus-measured absorbances, the amount of increase in absorbance (C) per minute was determined. […]

For data set [2] the test system is unchanged. Put plainly: Differentiation of PC12 cells, AChE activity (Ellman's method). It is filed as cell-based. The settings on record: NGF (positive control), sixth day of culture. As to the method:
as §1, with “prepared. The PC12 cells were suspended at a density of 5×10^4 cells/ml in DMEM to which 5 v/v % cow serum and 10 v/v % horse serum had been added. Thus, a cell suspension was prepared. 3 ml of the cell suspension was inoculated into a 6 petri dish.” for “prepared.”
For orientation: DTNB colorimetry detects thiols as they appear.

Data set [3] has as its system human umbilical vein endothelial cells (HUVEC) and normal human dermal fibroblasts. Put plainly: Measurement of lumen formation (angiogenesis kit, CD31 immunostaining, lumen area). It is filed as cell-based. As for the experimental part: The measurement of lumen formation was carried out in the following manner using commercially available angiogenesis kits (Kurabo), each including human umbilical vein endothelial cells (HUVEC) and normal human dermal fibroblasts. First, sample solutions were prepared by dissolving 2-Cl—C.OXT-A in physiological saline so as to achieve predetermined concentrations (1, 10, 100, 500 μmol/l, 1, 5, 10, 50 mmol/l). Then, the sample solutions containing 2-Cl—C.OXT-A at the predetermined concentrations respectively were added to media provided in the kits so that their concentrations became 10 v/v %. Thus, lumen formation media were prepared. The final concentrations of 2-Cl—C.OXT-A in the lumen formation media were 0.1, 1, 10, 50, 100, 500 μmol/l, 1 and 5 mmol/1.
Using each of the lumen formation media, the human umbilical vein endothelial cells (HUVEC) and the normal human dermal fibroblasts were cultured for 10 days. After the culture, the human umbilical vein endothelial cells (HUVEC) were immunostained using a lumen staining kit (for CD31 staining, Kurabo). Then, using NIH Image (image processing and analysis software), the area of a portion stained by the immunostaining (lumen area) was measured. As a control, a medium provided in the kit was used instead of the lumen formation medium to carry out the culture, and the cells were immunostained and the lumen area was measured in the same manner as in the above. Then, using the following equation (II), the relative value of lumen area in the culture using each of the lumen formation media containing 2-Cl—C.OXT-A at the predetermined concentrations was calculated.
In the present example, the relative value of lumen area was calculated in the same manner as in the lumen formation measurement in Example 1, except that the measurement was carried out with respect to four groups respectively using media Nos. 5 to 8 prepared by adding 2-Cl—C.OXT-A and PD98059 to media provided in the above-described angiogenesis kits (Kurabo) so that their concentrations became as shown in Table 2 below. In the group using the medium No. 7, the culture was conducted using the medium No. 7 from the first to third days of the culture and the medium No. 5 from the fourth to tenth days of the culture, and in the group using the medium No. 8, the culture was conducted using the medium No. 8 from the first to third days of the culture and the medium No. 6 from the fourth to tenth days of the culture.
In the present example, the relative value of lumen area was calculated in the same manner as in the lumen formation measurement in Example 1, except that the measurement was carried out with respect to six groups respectively using media Nos. 15 to 20 prepared by adding 2-Cl—C.OXT-A, VEGF (positive control), and SU5416 to media provided in the above-described angiogenesis kit (Kurabo) so that their concentrations became as shown in Table 4 below. In the group using the medium No. 16, the culture was conducted using the medium No. 16 from the first to third days of the culture and the medium No. 15 from the fourth to tenth days of the culture; in the group using the medium No. 18, the culture was conducted using the medium No. 18 from the first to third days of the culture and the medium No. 17 from the fourth to tenth days of the culture; and in the group using the medium No. 20, the culture was conducted using the medium No. 20 from the first to third days of the culture and the medium No. 19 from the fourth to tenth days of the culture.

The next data set deals with ERK. The data set can be described thus: ERK activation (phosphorylation) immunoblot in HUVEC. It is filed as cell-based, human. For orientation: In western blotting, separated proteins are transferred to a membrane and probed.
Data set [4] deals with Human umbilical vein endothelial cells (HUVEC). The data set can be described thus: Measurement of cell proliferation (Cell Counting Kit-8). The settings on record: examined in the same manner as in Example 1. The format is cell-based. As for the experimental part:
Sample solutions were prepared by dissolving 2-Cl—C.OXT-A in physiological saline so as to achieve predetermined concentrations (0.5, 1, 5, 10, 50, 100 mmol/l). Then, the sample solutions containing 2-Cl—C.OXT-A at the predetermined concentrations respectively were added to HuMedia-EB2 media (Kurabo) to which 2 v/v % inactivated fetal bovine serum (FBS) had been added so that their concentrations became 10 v/v %. Thus, cell proliferation media were prepared. The final concentrations of 2-Cl—C.OXT-A in the cell proliferation media were 50, 100, 500 μmol/l, 1, 5, and 10 mmol/1.
Human umbilical vein endothelial cells (HUVEC) suspended in a HuMedia-EG2 medium (Kurabo) were inoculated into each of gelatin-coated wells of a 96-well plate at a density of 3×10^3 cells per well, and cultured for 24 hours. 24 hours after the start of the culture, the medium was removed, and 100 μl of the cell proliferation medium was added to each well. The cells were cultured for another 48 hours. After the completion of the culture, a color reaction was caused using a Cell Counting Kit-8 (Dojindo Laboratories). 2 hours after the start of the reaction, the absorbance at 450 nm was measured using a microplate reader. As a control, a HuMedia-EB2 medium (Kurabo) to which 2 v/v % inactivated fetal bovine serum (FBS) had been added was used instead of the cell proliferation medium to carry out the culture, and a color reaction was caused and the absorbance was measured in the same manner as in the above. Then, using the following equation (I), the relative absorbance in the culture using each of the cell proliferation media containing 2-Cl—C.OXT-A at the predetermined concentrations was calculated.
A general note: Formazan colour is commonly taken as a measure of viable cells.

Data set [5] shares this test system. The data set can be described thus: Measurement of cell migration (CytoSelect 24-well Cell Migration Assay). The settings on record: examined in the same manner as in Example 1. It is filed as cell-based. As for the experimental part:
Measurement of cell migration was carried out in the following manner using CytoSelect 24-well Cell Migration Assay (CBA-100, Cell Biolabs) kits. First, sample solutions were prepared by dissolving 2-Cl—C.OXT-A in physiological saline so as to achieve predetermined concentrations (0.1, 0.5, 1 mmol/l). Then, the sample solutions containing 2-Cl—C.OXT-A at the predetermined concentrations respectively were added to HuMedia-EB2 media (Kurabo) to which 2 v/v % inactivated fetal bovine serum (FBS) had been added so that their concentrations became 10 v/v %. Thus, cell migration media were prepared. The final concentrations of 2-Cl—C.OXT-A in the cell migration media were 10, 50, and 100 μmol/l.
Human umbilical vein endothelial cells (HUVEC) were suspended in a HuMedia-EB2 medium (Kurabo) to which 2 v/v % inactivated fetal bovine serum (FBS) had been added at a density of 0.5×10^6 cells/ml. Thus, a cell suspension was prepared. 300 μl of the cell suspension was added to an upper compartment (i.e., in an insert) of a polycarbonate membrane plate provided in the kit, and 500 μl of the cell migration medium was added to a lower compartment (i.e., in a well) of the plate. Then, the cells were cultured at 37° C. for 24 hours. After the completion of the culture, the membrane on the inner bottom face of the insert was wiped out with a cotton swab to remove the cells on the membrane. Then, cells having migrated to the rear face of the membrane (the membrane on the outer bottom face of the insert) were stained using a staining solution provided in the kit, and then photographed from below the insert. After the photographing, the dye was extracted with an extracting solution provided in the kit, and the absorbance at 560 nm was measured using a microplate reader. As a control, a HuMedia-EB2 medium (Kurabo) to which 2 v/v % inactivated fetal bovine serum (FBS) had been added was used instead of the cell migration medium to carry out the culture, and the cells were stained and the absorbance was measured in the same manner as in the above. Then, using the above equation (I), the relative absorbance in the culture using each of the cell migration media containing 2-Cl—C.OXT-A at the predetermined concentrations was calculated.

Turning to “NGF: nerve growth factor, positive control”, the “morphological change of PC12 cells (axon extension)” value in data set [1] is “cells from which linear axons extend were observed”. For the same molecule, in data set [2], the “AChE enzyme activity (relative value)” value was “increased”.
As to `Cc1cc(C)c(/C=C2\C(=O)Nc3ccccc32)[nH]1` [SU5416, reference compound], in data set [3] (Example 9, medium No. 16: only SU5416 2.5 μmol/l, versus medium No. 15 (control)), the lumen formation entry is listed as “decreased”. In addition, the “lumen formation promotion by 2-Cl—C.OXT-A in the presence of SU5416” value in data set [3] (Example 9, medium No. 18: 2-Cl—C.OXT-A 10 μmol/l + SU5416 2.5 μmol/l, lumen area increased, rate lower than medium No. 17) is “not inhibited”. The lumen area entry in data set [3] (Example 9, medium No. 20: VEGF 10 ng/ml + SU5416 2.5 μmol/l) is recorded as “decreased”. Further, the “increase in pERK” value in the data set with ERK (Example 8, medium No. 10: only SU5416 100 nmol/l) is “not observed”. Further, in the data set with ERK (Example 8, medium No. 12: 2-Cl—C.OXT-A 100 μmol/l + SU5416 100 nmol/l), the “ERK activation by 2-Cl—C.OXT-A in the presence of SU5416” value is “not inhibited”. Moreover, the “increase in pERK by VEGF in the presence of SU5416” value in the data set on ERK (Example 8, medium No. 14: VEGF 10 ng/ml + SU5416 100 nmol/l) is “suppressed”.
Consider VEGF, for which the lumen area entry in data set [3] (Example 9, medium No. 19: VEGF 10 ng/ml) is listed as “increased”. Besides, in the data set on ERK (Example 8, medium No. 13: VEGF 10 ng/ml), the pERK result was “increased”.
Regarding `CSc1nc(N)c2ncn(C3CC(CO)C3CO)c2n1` (stereo not drawn) [2-SMe—C.OXT-A, 6-amino-2-thiomethoxy-9-[trans-trans-2,3-bis (hydroxymethyl)cyclobutyl]purine], the melting point lay within 209.4 to 211 °C. Besides, the “cell proliferation promoting-activity for vascular endothelial cells” value in data set [4] is recorded as “exhibited”. Besides, the “lumen formation promoting-activity for vascular endothelial cells” value in data set [3] (examined in the same manner as in Example 1) is “exhibited”. Besides, in data set [5], the “cell migration promoting-activity for vascular endothelial cells” value is listed as “exhibited”.

What is called melting point is the temperature of the solid-liquid transition.
